Measurements: US20240425478A1, “CYCLOPENTYLPYRAZOLE CDK2 INHIBITORS” (Genentech, Inc., priority 2021, published 2024)
Where two headings read alike, the source gives them in different places.

How the values were obtained:
[1] = tested on: OVISE (JCRB1043, CCNE1-amplified); test: OVISE EdU incorporation cell proliferation assay (CDK2-dependent); assay type: cell-based; settings: for CDK2 cell potency compared with Comparator E: CDK2 OVISE cellular assay data; for IC50: cellular assay, read-out: CDK2 OVISE IC50; for FS SKOV-3/OVISE / FS p-H3/OVISE: fold selectivity; for FS p-H3/OVISE: cellular p-H3 IC50 over OVISE IC50; for CDK2 OVISE IC50 fold change in potency versus Comparator D: Table R; for CDK2 OVISE IC50 fold change in potency versus Comparator E: Table S
In short: (§1)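 Cells in RPMI/10% FBS dosed with compound (0.5% DMSO final) for 16 h at 37 °C, 5% CO2, then EdU 0.5 μM final for 8 h before fixation and imaging. IC50 from 4-parameter logistic fit of EdU-positive cell fraction versus dose.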

[2] = tested on: HCT116 cells; test: p-H3 HCT-116 mitotic release cell proliferation assay (cellular CDK1); assay type: cell-based; settings: Homo sapiens, HCT-116; Table O, cellular assay; read-out: CDK1 p-H3 IC50
In short: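 HCT116 cells arrested 16 h with 500 nM nocodazole, then exposed to compound for 4 h at 37 °C (0.1% DMSO). Lysates read by HTRF/FRET with donor and acceptor phospho-Histone H3 (Ser10) antibodies, ≥2 h at room temperature; CDK1 inhibition seen as loss of p-H3 on mitotic release.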

[3] = molecular target: T1, Cyclin Dependent Kinase 4/Cyclin D3 (CDK4-cycD3) (Homo sapiens, UniProt P11802); test: CDK4-cycD3 TR-FRET (LANCE) enzyme assay; assay type: biochemical; settings: for Ki: Table O, enzymatic assay; for FS CDK4/CDK2: fold selectivity, enzymatic Ki ratio
T1 construct: purchased Carna Biosciences 04-105
T1 sequence (P11802 whole entry): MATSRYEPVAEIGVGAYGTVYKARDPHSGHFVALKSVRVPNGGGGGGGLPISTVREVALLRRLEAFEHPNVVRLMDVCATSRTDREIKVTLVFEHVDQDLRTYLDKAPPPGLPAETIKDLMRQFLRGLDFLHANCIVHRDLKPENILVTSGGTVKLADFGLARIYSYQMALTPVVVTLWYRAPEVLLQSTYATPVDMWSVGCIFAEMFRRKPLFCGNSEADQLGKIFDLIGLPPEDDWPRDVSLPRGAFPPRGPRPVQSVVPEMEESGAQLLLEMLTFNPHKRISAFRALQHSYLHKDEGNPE
T1 sequence (P30281 whole entry partner): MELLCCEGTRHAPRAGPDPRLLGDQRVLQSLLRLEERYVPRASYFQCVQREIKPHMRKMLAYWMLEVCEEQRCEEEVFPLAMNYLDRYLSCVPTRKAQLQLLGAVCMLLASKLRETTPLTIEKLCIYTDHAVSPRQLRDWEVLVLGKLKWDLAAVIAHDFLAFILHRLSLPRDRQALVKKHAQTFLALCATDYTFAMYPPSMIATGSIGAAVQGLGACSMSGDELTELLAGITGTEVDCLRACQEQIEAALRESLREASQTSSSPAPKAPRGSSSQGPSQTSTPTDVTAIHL
In short: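 Compound dose responses pre-incubated 30 min with enzyme mix in 50 mM HEPES pH 7.5, 10 mM MgCl2, 2 mM TCEP, 0.05% BGG, 0.01% Brij 35. Reaction quenched with EDTA (15 mM final); Eu-anti-phospho-4E-BP1 TR-FRET detection, acceptor/donor ratio. Ki derived by Morrison equation.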

[4] = molecular target: T2, Cyclin Dependent Kinase 1/Cyclin A2 (CDK1-cycA2) (Homo sapiens, UniProt P06493); test: CDK1-cycA2 TR-FRET (Lance) enzyme assay; assay type: biochemical; settings: for Ki: Table O, enzymatic assay; for FS CDK1/CDK2: fold selectivity, enzymatic Ki ratio
T2 construct: purchased ProQinase 0134-0054-1
T2 sequence (P06493 whole entry): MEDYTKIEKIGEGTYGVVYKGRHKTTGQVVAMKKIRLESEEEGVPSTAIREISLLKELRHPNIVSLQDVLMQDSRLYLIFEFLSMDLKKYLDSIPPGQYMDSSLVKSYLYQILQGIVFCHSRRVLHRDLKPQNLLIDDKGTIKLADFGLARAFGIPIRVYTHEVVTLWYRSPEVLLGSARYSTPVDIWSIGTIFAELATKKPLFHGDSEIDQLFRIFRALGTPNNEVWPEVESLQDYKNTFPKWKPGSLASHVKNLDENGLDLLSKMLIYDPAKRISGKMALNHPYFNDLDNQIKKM
T2 sequence (P20248 whole entry partner): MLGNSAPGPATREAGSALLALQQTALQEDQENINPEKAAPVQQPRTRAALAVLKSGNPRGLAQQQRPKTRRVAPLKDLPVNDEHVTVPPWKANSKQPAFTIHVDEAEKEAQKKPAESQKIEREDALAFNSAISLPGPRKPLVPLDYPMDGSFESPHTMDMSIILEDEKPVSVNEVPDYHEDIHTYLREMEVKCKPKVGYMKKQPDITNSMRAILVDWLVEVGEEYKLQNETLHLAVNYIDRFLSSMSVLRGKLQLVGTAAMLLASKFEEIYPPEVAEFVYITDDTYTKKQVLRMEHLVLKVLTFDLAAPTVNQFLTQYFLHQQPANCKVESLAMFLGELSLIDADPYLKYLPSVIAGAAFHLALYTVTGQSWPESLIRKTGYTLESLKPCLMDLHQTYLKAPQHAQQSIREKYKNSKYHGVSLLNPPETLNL
In short: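 Human CDK1/cyclin A2 pre-incubated 30 min with compound dose responses in 50 mM HEPES pH 7.5, 10 mM MgCl2, 2 mM TCEP, 0.05% BGG, 0.01% Brij 35. Reaction quenched with EDTA (15 mM final); TR-FRET readout using Eu-anti-phospho-4E-BP1, acceptor/donor ratio. Inhibition constants from Morrison equation.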

[5] = molecular target: T3, Cyclin Dependent Kinase 2/Cyclin E1 (CDK2-cycE1) (Homo sapiens, UniProt P24941); test: CDK2-cycE1 TR-FRET (LANCE) enzyme assay; assay type: biochemical; settings: for FS CDK1/CDK2 / FS CDK4/CDK2: fold selectivity; for CDK2 Ki fold change in potency versus Comparator D / CDK2 Ki fold change in potency versus Comparator E: in brackets after CDK2 Ki;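 for improvement in potency against CDK2 (Ki) over Comparator C: fold lower CDK2 Ki than comparator c (Ki 0.032 µM)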
T3 construct: purchased ProQinase 0050-0055-1
In short: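 Compound dose responses pre-incubated 30 min with CDK2-cycE1 in 50 mM HEPES pH 7.5, 10 mM MgCl2, 2 mM TCEP, 0.05% BGG, 0.01% Brij 35. Reaction quenched with EDTA (15 mM final), phospho-MBP detected by Eu-anti-phospho-MBP TR-FRET (acceptor/donor ratio). Inhibition constants from Morrison equation.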

[6] = tested on: SKOV-3 (ATCC HTB-77); test: SKOV-3 EdU incorporation cell proliferation assay (CDK4/6-dependent); assay type: cell-based; settings: for IC50: Homo sapiens, cellular assay, read-out: CDK4/6 SKOV-3 IC50; for selectivity for CDK2 over CDK4 compared with Comparator E: SKOV-3/OVISE fold-selectivity cellular assay data; for FS SKOV-3/OVISE: fold selectivity, cellular IC50 ratio
In short: as §1

[7] = Table O, cellular SKOV-3 IC50 over OVISE IC50
[8] = Table O, enzymatic assay, read-out: CDK2 Ki
[9] = Table O, enzymatic CDK1 Ki over CDK2 Ki
[10] = Table O, enzymatic CDK4 Ki over CDK2 Ki
[11] = Table R, enzymatic assay, read-out: CDK2 Ki
[12] = Table S, enzymatic assay, read-out: CDK2 Ki
[13] = read-out: CDK2 activity / potency (enzymatic assay)

Structure (SMILES) | IC50 ([1]; Table O) [µM] | FS SKOV-3/OVISE [1, 7] | FS p-H3/OVISE ([1]; Table O) | CDK2 OVISE IC50 fold change in potency versus Comparator D ([1]; in brackets after OVISE IC50) [fold] | CDK2 OVISE IC50 fold change in potency versus Comparator E ([1]; in brackets after OVISE IC50) [fold] | IC50 [2] [µM] | Ki [3] [µM] | FS CDK4/CDK2 increased over Comparator D, (+) sign ([3]; Table R) | FS CDK4/CDK2 ([3]; Table R) | FS CDK4/CDK2 increased over Comparator E, (+) sign ([3]; Table S) | FS CDK4/CDK2 ([3]; Table S) | Ki [4] [µM] | FS CDK1/CDK2 increased over Comparator D, (+) sign ([4]; Table R) | FS CDK1/CDK2 ([4]; Table R) | FS CDK1/CDK2 ([4]; Table S) | Ki [5, 8] [µM] | FS CDK1/CDK2 [5, 9] | FS CDK4/CDK2 [5, 10] | Ki [5, 11] [µM] | IC50 ([6]; SK-OV-3, Table O) [µM] | also measured
Cc1cc(Nc2cc([C@H]3CC[C@@H](OC(=O)NC(C)(C)C)C3)[nH]n2)nn(C)c1=O [Example 4D, (1R,3S)-3-(3-((1,5-dimethyl-6-oxo-1,6-dihydropyridazin-3-yl)amino)-1H-pyrazol-5-yl)cyclopentyl tert-butylcarbamate] | 0.026 | 58 | 0.35 | 146 | 6.5 | 0.0092 | 0.039 | (+) | > 620 | (+) | > 620 | 0.0037 | (+) | > 59 | >59 | < 0.0001 | >59 | >620 | < 0.0001 | 1.5 | CDK2 cell potency compared with Comparator E [1]: more potent CDK2 cell inhibitors compared to Comparator E; CDK2 Ki fold change in potency versus Comparator D ([5]; Table R): 27 fold; Ki [5, 12]: < 0.0001 µM; CDK2 Ki fold change in potency versus Comparator E ([5]; Table S): 5.2 fold; Ki [5, 13]: ≤ 0.001 µM; selectivity for CDK2 over CDK4 compared with Comparator E [6]: increase in selectivity for CDK2 over CDK4; FS SKOV-3/OVISE increased over Comparator D, (+) sign ([6]; Table R): (+); FS SKOV-3/OVISE ([6]; Table R): 58; FS SKOV-3/OVISE increased over Comparator E, (+) sign ([6]; Table S): (+); FS SKOV-3/OVISE ([6]; Table S): 58
Cc1ccncc1Nc1cc([C@H]2CC[C@@H](OC(=O)NC(C)(C)C)C2)[nH]n1 [Example 4A, (1R,3S)-3-(3-((4-methylpyridin-3-yl)amino)-1H-pyrazol-5-yl)cyclopentyl tert-butylcarbamate] | 0.18 | 71 | 0.72 | 21 | 0.9 | 0.093 | 0.41 | (+) | 170 | (+) | 170 | 0.21 | (+) | 78 | 78 | 0.0026 | 78 | 170 | 0.0026 | 9.9 | FS CDK1/CDK2 increased over Comparator E, (+) sign ([4]; Table S): (+); CDK2 Ki fold change in potency versus Comparator D ([5]; Table R): 1 fold; Ki [5, 12]: 0.0026 µM; CDK2 Ki fold change in potency versus Comparator E ([5]; Table S): 0.2 fold; selectivity for CDK2 over CDK4 compared with Comparator E [6]: increase in selectivity for CDK2 over CDK4; FS SKOV-3/OVISE increased over Comparator D, (+) sign ([6]; Table R): (+); FS SKOV-3/OVISE ([6]; Table R): 71; FS SKOV-3/OVISE increased over Comparator E, (+) sign ([6]; Table S): (+); FS SKOV-3/OVISE ([6]; Table S): 71
CC(C)NC(=O)O[C@@H]1CC[C@H](c2cc(Nc3ccnc(N)n3)n[nH]2)C1 [Example 2G, (1R,3S)-3-(3-((2-aminopyrimidin-4-yl)amino)-1H-pyrazol-5-yl)cyclopentyl isopropylcarbamate] | 0.28 | 36 | 1.0 | – | – | 0.28 | 0.15 | – | – | – | – | 0.088 | – | – | – | 0.0015 | 59 | 100 | – | 10 | increased fold-selectivity SKOV-3/OVISE over Comparator C ([1]; Table Q, (+) sign after FS SKOV-3/OVISE): (+) (The (+) sign in Table Q signifies desirable increased fold-selectivity of the exemplary compounds over Comparator C); FS SKOV-3/OVISE ([1]; Table Q, cellular): 36; improvement in CDK2 OVISE cell potency over Comparator C ([1]; Table Q, in brackets after OVISE IC50, Comparator C 5.5 μM): 19.6 fold; improvement in potency against CDK2 (Ki) over Comparator C [5]: 21 fold; increased fold-selectivity CDK1/CDK2 over Comparator C ([5]; Table Q, (+) sign after FS CDK1/CDK2): (+) (The (+) sign in Table Q signifies desirable increased fold-selectivity of the exemplary compounds over Comparator C); increased fold-selectivity CDK4/CDK2 over Comparator C ([5]; Table Q, (+) sign after FS CDK4/CDK2): (+) (The (+) sign in Table Q signifies desirable increased fold-selectivity of the exemplary compounds over Comparator C); Ki ([5]; Table Q, enzymatic assay, read-out: CDK2 Ki): 0.0015 µM; FS CDK1/CDK2 ([5]; Table Q, enzymatic): 59; FS CDK4/CDK2 ([5]; Table Q, enzymatic): 100; IC50 ([6]; SK-OV-3, Table Q): 10 µM
Cc1ncccc1Nc1cc([C@H]2CC[C@@H](OC(=O)NC(C)(C)C)C2)[nH]n1 [Example 4, (1R,3S)-3-(3-((2-methylpyridin-3-yl)amino)-1H-pyrazol-5-yl)cyclopentyl tert-butylcarbamate] | 0.02 | 46 | 1.5 | 190 | 8.5 | 0.03 | 0.034 | (+) | 160 | (+) | 160 | 0.025 | (+) | 110 | 110 | 0.00022 | 110 | 160 | 0.00022 | 0.92 | CDK2 cell potency compared with Comparator E [1]: more potent CDK2 cell inhibitors compared to Comparator E; FS CDK1/CDK2 increased over Comparator E, (+) sign ([4]; Table S): (+); CDK2 Ki fold change in potency versus Comparator D ([5]; Table R): 12.3 fold; Ki [5, 12]: 0.00022 µM; CDK2 Ki fold change in potency versus Comparator E ([5]; Table S): 2.4 fold; Ki [5, 13]: ≤ 0.001 µM; selectivity for CDK2 over CDK4 compared with Comparator E [6]: increase in selectivity for CDK2 over CDK4; FS SKOV-3/OVISE increased over Comparator D, (+) sign ([6]; Table R): (+); FS SKOV-3/OVISE ([6]; Table R): 46; FS SKOV-3/OVISE increased over Comparator E, (+) sign ([6]; Table S): (+); FS SKOV-3/OVISE ([6]; Table S): 46
